In patent US9096591B2, “Tetracyclic compounds” (Medivation Technologies, Inc., priority 2007, dated 2015):

How the values were obtained:
[1] = biological target: T1, human recombinant histamine H1 receptor (Homo sapiens, UniProt P35367); assay: Histamine H1 radioligand binding ([3H]Pyrilamine); conditions: percent inhibition of specific binding; screened at 1 μM; read-out: Inhibition of ligand binding, Hist. H1
T1 construct: expressed in transfected cells; host or cells: CHO cells
Procedure, shortened: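 CHO-expressed receptor in modified Tris-HCl buffer (50 mM, pH 7.4; 2 mM MgCl2, 100 mM NaCl, 250 mM sucrose); bound ligand measured after filtration and washing.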

[2] = biological target: T2, human recombinant serotonin (5-Hydroxytryptamine) 5-HT2C receptor (Homo sapiens, UniProt P28335); assay: Serotonin 5-HT2C radioligand binding ([3H]Mesulergine); parameters: Inhibition of ligand binding, Ser. 5-HT2C: concentration or dose not given beside the values; conditions: percent inhibition of specific binding
T2 construct: expressed in transfected cells; host or cells: CHO-K1 cells
T2 sequence (P28335 33-458): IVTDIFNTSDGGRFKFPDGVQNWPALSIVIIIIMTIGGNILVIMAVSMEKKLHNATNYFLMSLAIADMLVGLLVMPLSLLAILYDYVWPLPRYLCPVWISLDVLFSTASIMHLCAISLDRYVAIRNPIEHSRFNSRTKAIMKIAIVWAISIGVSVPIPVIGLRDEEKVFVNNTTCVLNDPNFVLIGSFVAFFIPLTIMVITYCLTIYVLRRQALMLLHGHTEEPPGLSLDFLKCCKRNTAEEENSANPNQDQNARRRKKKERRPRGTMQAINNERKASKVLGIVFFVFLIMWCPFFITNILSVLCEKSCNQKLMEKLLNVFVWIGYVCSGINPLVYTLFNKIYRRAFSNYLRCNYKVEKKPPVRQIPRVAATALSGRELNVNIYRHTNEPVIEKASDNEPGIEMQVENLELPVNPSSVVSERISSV
Method: Compounds of the invention were incubated with 1 nM [^3H]Mesulergine for 60 minutes at 25° C. Non-specific binding was estimated in the presence of 1 μM Mianserin. Receptor proteins were filtered and washed, the filters were then counted to determine [^3H]Mesulergine specifically bound. […] Biochemical assay results are presented as the percent inhibition of specific binding in Table 6.

[3] = biological target: T3, human recombinant serotonin (5-Hydroxytryptamine) 5-HT6 receptor (Homo sapiens, UniProt P50406); assay: Serotonin 5-HT6 radioligand binding ([3H]LSD); parameters: Inhibition of ligand binding, Ser. 5-HT6: concentration or dose not given beside the values; conditions: percent inhibition of specific binding
T3 construct: expressed in transfected cells; host or cells: human HeLa cells
T3 sequence (P50406 whole entry): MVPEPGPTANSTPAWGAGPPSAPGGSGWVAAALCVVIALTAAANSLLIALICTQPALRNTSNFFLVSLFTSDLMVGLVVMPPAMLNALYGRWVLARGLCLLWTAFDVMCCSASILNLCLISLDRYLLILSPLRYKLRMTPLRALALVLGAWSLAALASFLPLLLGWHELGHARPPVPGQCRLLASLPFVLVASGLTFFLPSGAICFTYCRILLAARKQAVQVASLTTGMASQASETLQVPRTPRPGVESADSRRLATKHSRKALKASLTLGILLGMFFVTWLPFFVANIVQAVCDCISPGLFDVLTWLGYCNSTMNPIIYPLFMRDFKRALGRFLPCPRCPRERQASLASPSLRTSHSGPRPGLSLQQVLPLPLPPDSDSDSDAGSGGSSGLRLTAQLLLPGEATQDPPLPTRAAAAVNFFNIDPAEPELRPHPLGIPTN
Excerpt: Receptor proteins were filtered and washed, the filters were then counted to determine [3H]LSD specifically bound. […] Biochemical assay results are presented as the percent inhibition of specific binding in Table 6.

[4] = biological target: T4, human recombinant adrenergic α2B receptor (Homo sapiens, UniProt P18089); assay: Adrenergic α2B radioligand binding ([3H]Rauwolscine); parameters: Inhibition of ligand binding, Adren. alpha2B: concentration or dose not given beside the values; conditions: percent inhibition of specific binding
T4 construct: expressed in transfected cells; host or cells: CHO-K1 cells
T4 sequence (P18089 1-450): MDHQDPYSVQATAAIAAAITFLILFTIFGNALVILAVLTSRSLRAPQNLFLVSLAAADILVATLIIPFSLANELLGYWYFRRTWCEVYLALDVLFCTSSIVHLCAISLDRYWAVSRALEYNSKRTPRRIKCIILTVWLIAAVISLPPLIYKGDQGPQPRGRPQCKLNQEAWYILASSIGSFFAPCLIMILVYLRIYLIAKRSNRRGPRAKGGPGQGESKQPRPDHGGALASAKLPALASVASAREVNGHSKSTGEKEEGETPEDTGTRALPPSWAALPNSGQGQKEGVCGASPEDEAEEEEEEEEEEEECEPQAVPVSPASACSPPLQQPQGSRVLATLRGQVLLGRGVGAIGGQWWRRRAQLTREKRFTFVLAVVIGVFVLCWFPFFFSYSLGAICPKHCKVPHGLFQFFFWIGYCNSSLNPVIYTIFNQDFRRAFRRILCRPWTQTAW
Procedure, shortened: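 Incubation ran 60 minutes at 25 °C in modified Tris-HCl buffer (50 mM, pH 7.4, 12.5 mM MgCl2, 1 mM EDTA, 0.2% BSA) using CHO-K1-expressed human receptor.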

T1 sequence (P35367 whole entry): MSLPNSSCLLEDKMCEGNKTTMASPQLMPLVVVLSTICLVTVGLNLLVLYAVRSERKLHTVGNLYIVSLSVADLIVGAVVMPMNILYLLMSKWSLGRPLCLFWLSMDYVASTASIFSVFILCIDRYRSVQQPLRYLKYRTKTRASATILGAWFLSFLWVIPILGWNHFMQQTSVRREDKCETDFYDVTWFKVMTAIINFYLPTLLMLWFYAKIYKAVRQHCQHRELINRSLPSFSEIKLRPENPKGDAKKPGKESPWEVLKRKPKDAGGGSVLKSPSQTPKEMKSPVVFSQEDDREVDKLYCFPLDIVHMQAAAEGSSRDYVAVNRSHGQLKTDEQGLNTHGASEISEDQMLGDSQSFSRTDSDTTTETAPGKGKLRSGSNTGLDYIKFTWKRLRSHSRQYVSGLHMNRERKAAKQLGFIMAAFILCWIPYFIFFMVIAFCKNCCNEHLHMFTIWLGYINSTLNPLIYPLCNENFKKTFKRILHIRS

| SMILES | inhibition at 1 µM [1] [%] | Inhibition of ligand binding, Ser. 5-HT2C [2] [%] | Inhibition of ligand binding, Ser. 5-HT6 [3] [%] | Inhibition of ligand binding, Adren. alpha2B [4] [%] |
| --- | --- | --- | --- | --- |
| Cc1cncc(CCn2c3c(c4cc(C)ccc42)CN(C)CC3)c1 [Compound 429, 2,3,4,5-tetrahydro-2,8-dimethyl-5-(2-(5-methylpyridin-3-yl)ethyl)-1H-pyrido[4,3-b]indole] | 100 | 84 | 79 | 115 |
| Cc1ccc2c(c1)c1c(n2CCc2cncc(Cl)c2)CCN(C)C1 [Compound 443, 5-(2-(5-chloropyridin-3-yl)ethyl)-2,3,4,5-tetrahydro-2,8-dimethyl-1H-pyrido[4,3-b]indole] | 102 | 95 | 96 | 117 |
| CN1CCc2c(c3cc(Cl)ccc3n2CCc2cncc(Cl)c2)C1 [Compound 444, 8-chloro-5-(2-(5-chloropyridin-3-yl)ethyl)-2,3,4,5-tetrahydro-2-methyl-1H-pyrido[4,3-b]indole] | 101 | 95 | 96 | 113 |
| CCCc1ccc(CCn2c3c(c4cc(C)ccc42)CN(C)CC3)cn1 [Compound 452, 2,8-Dimethyl-5-[2-(6-propyl-pyridin-3-yl)-ethyl]-2,3,4,5-tetrahydro-1H-pyrido[4,3-b]indole] | 109 | 93 | 93 | 104 |
| CC(Cn1c2c(c3ccccc31)CN(C)CC2)c1ccc(F)cc1 (centres unmarked) [Compound 455] | 80 | 97 | 99 | 120 |
| Cc1ccc2c(c1)c1c(n2CC(C)c2ccc(F)cc2)CCN(C)C1 (centres unmarked) [Compound 456, 5-(2-(4-fluorophenyl)propyl)-2,3,4,5-tetrahydro-2,8-dimethyl-1H-pyrido[4,3-b]indole] | 99 | 99 | 98 | 110 |
| Cc1ccc2c(c1)c1c(n2CC(=O)N2CCN(C)CC2)CCN(C)C1 [Compound 459, 2-(1,2,3,4-tetrahydro-2,8-dimethylpyrido[4,3-b]indol-5-yl)-1-(4-methylpiperazin-1-yl)ethanone] | 0 | 3 | −10 | −20 |
| CCCc1ccc(CCn2c3c(c4cc(Cl)ccc42)CN(C)CC3)cn1 [Compound 476, 8-chloro-2,3,4,5-tetrahydro-2-methyl-5-(2-(6-propylpyridin-3-yl)ethyl)-1H-pyrido[4,3-b]indole] | 98 | 96 | 87 | 97 |
